Experimental data: publication PMC9501633, “Synthesis, Characterisation and Mechanism of Action of Anticancer 3-Fluoroazetidin-2-ones” (Pharmaceuticals, 2022)

Tests used:
[1] = test system: MCF-7 human breast cancer cells; test: AlamarBlue cell viability assay; type: cell-based; conditions: for viability at 1 µM / viability at 10 µM / IC50: Homo sapiens, MCF7, 72 h; for viability at 1 µM: MCF-7, 1 μM; for viability at 1 µM / viability at 10 µM: read-out: viable cells remaining; for viability at 10 µM: MCF-7, 10 μM; for IC50: MCF-7, 72 h
Experimental: The antiproliferative potential of the synthesised 3-fluoro β-lactams 26–35 and 3,3-difluoro β-lactams 36–45 was evaluated in MCF-7 human breast cancer cells using the AlamarBlue assay, with CA-4 as reference compound (Figure 3). […] The results for the preliminary in vitro antiproliferative screen for 3-fluoro β-lactam compounds (26–29), which contain different substituents at the para position in the B ring, are presented in Figure 3A.
Cells were seeded at a density of 5 × 10^3 cells/well (MCF-7 and MDA-MB-231) and 1 × 10^4 cells/well (HEK-293T) in 96-well plates (200 μL per well). After 24 h, cells were then treated with medium alone, with vehicle (1% ethanol (v/v)) or with CA-4 or β-lactam compounds at 1 μM and 10 μM concentrations. […] Cell proliferation for MCF-7 cells was analysed with the AlamarBlue assay (Invitrogen Corp.) as previously described by us. After 72 h, AlamarBlue (10% (v/v)) was added to each well, and plates were incubated for 3–5 h at 37 °C in the dark. Fluorescence results were obtained with a 96-well fluorimeter with excitation at 530 nm and emission at 590 nm with results recorded as percentage viability relative to vehicle control (100%). Dose–response curves were obtained and IC50 values (concentration of drug resulting in 50% reduction in cell survival) were calculated using Prism (GraphPad Software, Inc., La Jolla, CA, USA).
Figure 3 Preliminary cell viability data for 3-fluoro and 3,3-difluoro β-lactam compounds. (A) 3-Fluoro β-lactam compounds containing different para-substituent ring B 26–29; 3-fluoro β-lactam compounds containing different meta-substituent ring B 30, 32–35; (B) 3-difluoro β-lactam compounds containing different para-substituent ring B 36–39; 3-difluoro β-lactam compounds containing different meta-substituent ring B 40, 42–45 in MCF-7 breast cancer cells. Cell proliferation of MCF-7 cells was determined with an AlamarBlue assay (seeding density […] for 96-well plates). Compound concentrations of either 10 μM or 1 μM for 72 h were used to treat the cells with control wells containing vehicle ethanol (1% v/v) and CA-4 (10 μM and 1 μM). The mean value for three experiments is shown with the ± S.E.M. for three independent experiments.

[2] = test system: SW-480 cells; test: AlamarBlue cell viability assay; type: cell-based; conditions: SW-480, 10 μM, 72 h
Experimental: Compound # (Treatment Concentration µM) […]
different para-substituent ring B 26-29; 3-fluoro β-lactam compounds containing different meta-substituent ring B 30, 33-35; (B) 3,3-difluoro β-lactam compounds containing different para-substituent ring B 36-39; 3,3-difluoro β-lactam compounds containing different meta-substituent […]
ring B 40, 42-45 in SW-480 cancer cells.
Cell proliferation of MCF-7 cells was determined with an alamarBlue assay (seeding density […]
Compound concentrations of either 10 μM or 1 μM for 72 h were used to treat the cells with control wells containing vehicle ethanol (1%

[3] = Stability in phosphate buffers (HPLC); type: physicochemical
Experimental: (§1) The β-lactam ring is known to undergo hydrolysis/degradation depending on the substituent type on the ring. For example, degradation of monocyclic β-lactam antibiotic aztreonam increased with elevated humidity, temperature and acidic pH buffer. Ezetimibe, a monocyclic β-lactam drug used to reduce blood cholesterol, undergoes degradation and hydrolysis more rapidly in neutral and basic pH conditions than in acidic pH [71]. The stability of representative compounds 33 and 39 was also determined at pH 4, pH 7.4 (plasma) and pH 9 (intestine) by HPLC. […] The electron-withdrawing effect of the 3-fluoro substituent may result in decreasing stability of the β-lactam ring in response to acid hydrolysis.
(§2) The stability study for compounds 33 and 39 was performed using analytical HPLC (Symmetry column (C18, […], 4.6 × 150 mm), dual wavelength absorbance detector (Waters 2487), binary HPLC pump (Waters 1525) and autosampler (Waters 717 plus)) with mobile phase acetonitrile (70%)/water (30%), flow rate 1 mL/min over 15 min and detection at λ 254 nm. Stock solutions of compounds 33 and 39 (1 mg/mL in mobile phase) were used. Dilutions of 0.5 mg/mL, 0.25 mg/mL, 0.125 mg/mL, 0.0625 mg/mL, 0.03125 mg/mL, 0.015625 mg/mL and 0.0078 mg/mL were prepared for the calibration curve. (i) Stability of 33 and 39 in phosphate buffers: The phosphate buffers were prepared in accordance with the British Pharmacopoeia 2020 at pH values 4, 7.4 and 9. Stock solution, 300 µL (1 mg/mL ACN), was added to a vial containing buffer (9.7 mL), mixed and pre-heated to 37 °C. 1 mL of the solution was introduced into an HPLC vial. Samples (10 µL) were injected and analysed at time intervals of t = 0 min, 5 min, 30 min, 60 min and hourly for 24 h. The analysis was performed in triplicate. (ii) Thermal stability: Compounds 33 and 39 (1 mL stock solution) were each placed in a vial for 4 h at 60 °C on a heating block. The sample was then cooled, diluted with acetonitrile and analysed by HPLC. (iii) Photostability study: Compounds 33 and 39 (stock solution, 1 mL) were placed in a vial, exposed to UV light for 4 h and then analysed by HPLC. (iv) Stability in acidic conditions: HCl (0.1 M, 0.2 mL) was added to stock solutions (0.8 mL) of 33 and 39 in a vial. The vial was vortexed and retained at room temperature. A sample was neutralised with NaOH (0.1 M, 0.2 mL) each hour for 4 h and then analysed by HPLC. (v) Stability of 33 and 39 in basic (alkaline) conditions: NaOH (0.1 M, 0.2 mL) was added to stock solution (0.8 mL) in a vial. The vial was vortexed and retained at room temperature. A sample was neutralised with HCl (0.1 M, 0.2 mL) every hour for 4 h then analysed by HPLC. (vi) Stability of 33 and 39 in oxidising conditions: H2O2 (3%, 0.2 mL) was added to the stock solution (0.8 mL). The vial was vortexed to obtain a homogeneous mixture and retained at room temperature, and a sample was analysed by HPLC every hour for 4 h.

[4] = Stability under degradation conditions (HPLC); type: physicochemical
Experimental: as §1, §2

[5] = test system: purified bovine brain tubulin; test: Tubulin polymerisation assay (turbidimetric, 340 nm); type: biochemical; conditions: paclitaxel 10 µM; 33 10 and 30 µM
Experimental: Tubulin polymerisation was investigated using a turbidimetric assay which determines the light scattering by microtubules (absorbance at 340 nm) that is proportional to the microtubule polymer concentration.
Tubulin polymerisation was monitored with purified bovine tubulin using the BK006 kit supplied by Cytoskeleton Inc. (Denver, CO, USA), carried out following the manufacturer’s instructions with the standard assay conditions. Purified (>99%) bovine brain tubulin (3 mg/mL) in a buffer containing PIPES (80 mM, pH 6.9), EGTA (0.5 mM), MgCl2 (2 mM), GTP (1 mM) and glycerol (10%) was incubated at 37 °C in the presence of either vehicle (2% (v/v) ddH2O) or paclitaxel (10 µM), CA-4 (10 μM) or 33 (10 and 30 µM). The effect on tubulin assembly was monitored turbidimetrically at 340 nm in a Spectramax 340 PC spectrophotometer (Molecular Devices, Sunnyvale, CA, USA), with the light scattered depending on the concentration of polymerised microtubules formed. The absorbance was measured at 30 s intervals for 60 min.
Figure 7 Effect of β-lactam compound 33 (10 and 30 µM) and paclitaxel (10 µM) on in vitro tubulin polymerisation. Purified bovine tubulin and GTP were mixed in a 96-well plate. Compounds were added and the reaction was started by warming the solution from 4 to 37 °C. Ethanol (1% v/v) was used as a vehicle control. The effect on tubulin assembly was monitored in a Spectramax 340PC spectrophotometer at 340 nm at 30 s intervals for 30 min at 37 °C. […] Each experiment was performed in duplicate.

[6] = test system: MCF-7 cells; test: Immunofluorescence confocal microscopy of the microtubule network; type: cell-based, human; conditions: MCF-7, 16 h; 33 0.1, 0.5 and 1.0 μM; paclitaxel 1.0 μM; CA-4 0.01 μM
Experimental: The tubulin-targeting effect of compound 33 on the microtubule network of MCF-7 cells was further evaluated by immunofluorescence studies to identify the cellular effects that are relevant to its mechanism of action by inhibiting the polymerisation of tubulin. […] Treatment of MCF-7 cells with compound 33 (0.1, 0.5 and 1.0 μM) induced cell rounding and distinct abnormalities of the spindle formation as well as a loss of the structured tubulin that impacts the microtubule network structure in a dose-dependent manner.
Confocal microscopy was used to determine the effects of novel compound 33 and standard drugs on the MCF-7 cytoskeleton according to the protocols we previously described. For the immunofluorescence study, MCF-7 cells were seeded at 1 × 10^5 cells/mL using eight chamber glass slides (BD Biosciences). The cells were treated with vehicle control (1% ethanol (v/v)), CA-4 (0.01 μM), paclitaxel (1 µM) and 33 (0.1 µM, 0.5 µM and 1 µM) for 16 h. The cells were gently washed in PBS, fixed with 4% paraformaldehyde in PBS (20 min) and permeabilised in 0.5% Triton X-100. After further washes in PBS (containing 0.1% Tween (PBST)), cells were blocked with 5% bovine serum albumin which was diluted with PBST. Cells were incubated with mouse monoclonal anti-α-tubulin–FITC antibody (clone DM1A) (Sigma) (1:100) at 20 °C for 2 h and then washed in PBST and incubated with Alexa Fluor 488 dye (1:500) for 1 h at 20 °C. Cells were washed in PBST and mounted in Ultra Cruz Mounting Media (Santa Cruz Biotechnology, Santa Cruz, CA, USA) containing 4,6-diamino-2-phenolindol dihydrochloride (DAPI). The images were captured by Leica SP8 confocal microscopy with Leica Application Suite X software. Experiments were performed on three independent occasions and images were collected on the same day using identical parameters.
Figure 8 Compound 33 acts as depolymeriser of the microtubule network of MCF-7 breast cancer cells. Cells were treated with vehicle control ([…]), CA-4 (0.01 μM), paclitaxel (1 μM) or compound 33 (0.1, 0.5 and 1 μM) for 16 h. […]

## COc1cc(N2C(=O)C(F)C2c2ccc(SC)cc2)cc(OC)c1OC (stereo not shown) [Compound 28, 3-Fluoro-4-(4-(methylthio)phenyl)-1-(3,4,5-trimethoxyphenyl)azetidin-2-one]
[1]; 72 h
  viability at 1 µM: > 70%
  viability at 10 µM: 47%

## CCOc1ccc(C2C(F)C(=O)N2c2cc(OC)c(OC)c(OC)c2)cc1 (stereo not shown) [Compound 27, 4-(4-Ethoxyphenyl)-3-fluoro-1-(3,4,5-trimethoxyphenyl)azetidin-2-one]
[1]; 72 h
  viability at 1 µM: > 70%
  viability at 10 µM: 46%

## CCSc1ccc(C2C(F)C(=O)N2c2cc(OC)c(OC)c(OC)c2)cc1 (stereo not shown) [Compound 29, 4-(4-(Ethylthio)phenyl)-3-fluoro-1-(3,4,5-trimethoxyphenyl)azetidin-2-one]
[1]; MCF-7, range over the two concentrations 1 and 10 μM, 72 h
  cell viability: 68–90%
[2]
  cells remaining: 60%

## COc1ccc(C2N(c3cc(OC)c(OC)c(OC)c3)C(=O)C2(F)F)cc1O (stereo not shown) [Compound 42, 3,3-Difluoro-4-(3-hydroxy-4-methoxyphenyl)-1-(3,4,5-trimethoxyphenyl)azetidin-2-one]
[1]; 72 h
  viability at 1 µM: 17%
  viability at 10 µM: 37%
[1]
  IC50: 321 nM
[2]
  cells remaining: 56%

## COc1ccc(C2C(F)C(=O)N2c2cc(OC)c(OC)c(OC)c2)cc1 (stereo not shown) [Compound 26, 3-Fluoro-4-(4-methoxyphenyl)-1-(3,4,5-trimethoxyphenyl)azetidin-2-one]
[1]; 72 h
  viability at 1 µM: > 70%
  viability at 10 µM: 40%
[1]
  IC50: 312 nM
[2]
  cells remaining: 58%

## CCSc1ccc(C2N(c3cc(OC)c(OC)c(OC)c3)C(=O)C2(F)F)cc1 (stereo not shown) [Compound 39, 4-(4-(Ethylthio)phenyl)-3,3-difluoro-1-(3,4,5-trimethoxyphenyl)azetidin-2-one]
[3]; phosphate buffer pH 4, 37 °C
  remaining at 24 h, 0.03 mg/mL: 39%
[3]; phosphate buffer pH 7.4, 37 °C
  remaining at 24 h, 0.03 mg/mL: 50%
[3]; phosphate buffer pH 9, 37 °C
  remaining at 24 h, 0.03 mg/mL: 19%
[3]; phosphate buffer, pH 11 (as printed in Table S7)
  remaining at 0.03 mg/mL: 19%
[4]; 0.1 M HCl added to stock solution, acidic (0.1 M HCl)
  remaining at 4 h, 0.8 mg/mL: 54%
[4]; 0.1 M NaOH added to stock solution, alkaline (0.1M NaOH)
  remaining at 4 h, 0.8 mg/mL: 60%
[4]; 3% H2O2 added to stock solution, oxidative (3% H2O2)
  remaining at 4 h, 0.8 mg/mL: 50%
[4]; stock solution in acetonitrile/water under UV light, UV light
  remaining at 4 h, 1 mg/mL: 61%
[4]; stock solution in acetonitrile/water, heated, heat (60 °C)
  remaining at 4 h, 1 mg/mL: 82%

## CC(=O)O[C@H]1C(=O)[C@@]2(C)[C@H]([C@H](OC(=O)c3ccccc3)[C@]3(O)C[C@H](OC(=O)[C@H](O)[C@@H](NC(=O)c4ccccc4)c4ccccc4)C(C)=C1C3(C)C)[C@]1(OC(C)=O)CO[C@@H]1C[C@@H]2O [Paclitaxel, reference compound]
[5]
  effect on tubulin polymerisation: stabilises the tubulin
[6]
  effect on the microtubule network: significant stabilisation of microtubules
